Data on 17 molecules can be found in US12410171B2, “Tropomyosin receptor kinase (TRK) degradation compounds and methods of use” (Cullgen (Shanghai), Inc., priority 2020, dated 2025).

For one test, the target named is T1, TPM3-TRKA fusion protein (Homo sapiens, UniProt P04629).
T1 construct: The resulted chimeric proteins always retain the kinase domain of TRK proteins; TPM3 (fusion partner, N-terminal part of tropomyosin alpha-3, P06753); endogenous in cells; host or cells: KM12 colon cancer cells; the other entry of the earlier key: TPM3 (P06753, Tropomyosin alpha-3 chain)
The test can be described thus: TPM3-TRKA fusion protein levels in KM12 cells (Western blot). Type of test: cell-based. Conditions: read-out: Degradation (at 10 nM). The method in brief:
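TPM3-TRKA levels were assessed by Western blot with chemiluminescent detection and band densitometry, after SDS-PAGE of BCA-normalized RIPA lysates. Before lysis, KM12 cells received DMSO, compounds or matched control compounds at concentrations including 0.1, 1, 10 and 100 nM and 0.4–30 nM. Exposures lasted 4 h, 8–16 h or 16 h.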

For another test, the system named is KM12 cells. Put plainly: KM12 cell viability (CellTiter-Glo). In kind it is cell-based. As to conditions: Homo sapiens. The method in brief: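 Three-day exposure of KM12 cells (5000/well, RPMI 1640 with 10% FBS, 37 °C, 5% CO2) to compound dilution series, 3-fold over 8 or 11 points (top 1000 nM in the 8-point format) or 2-fold over 12. CellTiter-Glo readout, with IC50 fitted by nonlinear least-squares regression.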

[1] abbreviates: 16 h, TPM3-TRKA degradation in KM12 cells at 10 nM compound, category of percentage degradation.
[2] abbreviates: 72 h, KM12 cell viability, CellTiter-Glo, three days treatment, read-out: IC50.

For orientation: IC50 means the point on the concentration scale where inhibition reaches its midpoint.

Read-outs that look alike come from different tables or passages of the source.

T1 sequence (P04629 with tags, fused parts or gaps): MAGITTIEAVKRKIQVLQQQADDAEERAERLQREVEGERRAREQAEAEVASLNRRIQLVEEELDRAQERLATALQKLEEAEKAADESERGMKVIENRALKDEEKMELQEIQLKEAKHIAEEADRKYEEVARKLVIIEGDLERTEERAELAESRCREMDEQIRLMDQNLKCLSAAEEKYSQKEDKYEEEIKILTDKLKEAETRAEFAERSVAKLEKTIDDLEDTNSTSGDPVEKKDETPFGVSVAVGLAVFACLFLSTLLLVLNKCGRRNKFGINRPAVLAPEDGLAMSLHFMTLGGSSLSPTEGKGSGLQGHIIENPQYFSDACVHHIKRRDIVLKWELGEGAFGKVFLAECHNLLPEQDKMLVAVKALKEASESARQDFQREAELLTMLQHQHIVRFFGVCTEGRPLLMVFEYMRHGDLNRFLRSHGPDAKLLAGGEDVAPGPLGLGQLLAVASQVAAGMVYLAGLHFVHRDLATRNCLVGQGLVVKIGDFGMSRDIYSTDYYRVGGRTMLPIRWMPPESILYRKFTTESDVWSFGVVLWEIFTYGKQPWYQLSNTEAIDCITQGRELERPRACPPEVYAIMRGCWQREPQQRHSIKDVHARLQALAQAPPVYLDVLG

With `O=C1CCC(n2nnc3cccc(N4CC(CCN5CCN(c6cccc(-c7cnc8ccc(N9CCC[C@@H]9c9cccc(F)c9)nn78)n6)CC5)C4)c3c2=O)C(=O)N1` (stereo partly shown) [TR-297], the percent degradation of TPM3-TRKA protein at 0.01 µM at TPM3-TRKA fusion protein (setting [1]) lay within 50 to 80%. In the test on KM12 cells (setting [2]), the IC50 is 39 nM.

In the case of `O=C1CCC(N2Cc3ccc(C#CCN4CCN(c5ccc(C(=O)Nc6n[nH]c7ccc(Cc8cc(F)cc(F)c8)cc67)c(NC6CCOCC6)c5)CC4)cc3C2=O)C(=O)N1` (stereo not drawn) [TR-298, N—(S-(3,5-Difluorobenzyl)-1H-indazol-3-yl)-4-(4-(3-(2-(2,6-dioxopiperidin-3-yl)-3-oxoisoindolin-5-yl)prop-2-yn-1-yl)piperazin-1-yl)-2-((tetrahydro-2/-pyran-4-yl)amino)benzamide], the percent degradation of TPM3-TRKA protein at 0.01 µM on TPM3-TRKA fusion protein (setting [1]) is > 80%. The IC50 with KM12 cells (setting [2]) came to 30 nM.

`O=C1CCC(N2C(=O)c3ccc(NC4CCC(N5CCN(c6ccc(C(=O)Nc7n[nH]c8ccc(Cc9cc(F)cc(F)c9)cc78)c(NC7CCOCC7)c6)CC5)C4)cc3C2=O)C(=O)N1` (stereo not shown) [TR-299, N-(5-(3,5-Difluorobenzyl)-1H-indazol-3-yl)-4-(4-(3-((2-(2,6-dioxopiperidin-3-yl)-1,3-dioxoisoindolin-S-yl)amino)cyclopentyl)piperazin-1-yl)-2-((tetrahydro-2/-pyran-4-yl)amino)benzamide]: the percent degradation of TPM3-TRKA protein at 0.01 µM on TPM3-TRKA fusion protein (setting [1]) was > 80%. Further, in the test with KM12 cells (setting [2]), the 50% inhibitory concentration (IC50) amounted to 23 nM.

Regarding `O=C1CCC(N2Cc3cc(N4CC(CN5CCN(c6ccc(C(=O)Nc7n[nH]c8ccc(Cc9cc(F)cc(F)c9)cc78)c(NC7CCOCC7)c6)CC5)C4)ccc3C2=O)C(=O)N1` (stereo not drawn) [TR-300, N—(S-(3,5-Difluorobenzyl)-1H-indazol-3-yl)-4-(4-((1˜ (2˜ (2,6-dioxopiperidin-3-yl)-1-oxoisoindolin-5-yl)azetidin-3-yl)methyl)piperazin-1-yl)-2-((tetrahydro-2H-pyran-4-yl)amino)benzamide], on TPM3-TRKA fusion protein (setting [1]), the percent degradation of TPM3-TRKA protein at 0.01 µM lay in the range of 50 to 80%. In addition, the IC50 in the test on KM12 cells (setting [2]) is 53 nM.

Regarding `CC(C1CN(c2ccc3c(c2)C(=O)N(C2CCC(=O)NC2=O)C3=O)C1)N1CCN(c2ccc(C(=O)Nc3n[nH]c4ccc(Cc5cc(F)cc(F)c5)cc34)c(NC3CCOCC3)c2)CC1` (stereo not shown) [TR-301, N-(5-(3,5-difluorobenzyl)-1H-indazol-3-yl)-4-(4-(1-(1-(2-(2,6-dioxopiperidin-3-yl)-1,3-dioxoisoindolin-5-yl)azetidin-3-yl)ethyl)piperazin-1-yl)-2-((tetrahydro-2H-pyran-4-yl)amino)benzamide], on TPM3-TRKA fusion protein (setting [1]), the percent degradation of TPM3-TRKA protein at 0.01 µM is > 80%. In addition, in the test on KM12 cells (setting [2]), the IC50 worked out at 6 nM.

Turning to `O=C1CCC(N2Cc3cc(C4CN(C5CCN(c6cccc(-c7cnc8ccc(N9CCC[C@@H]9c9cccc(F)c9)nn78)n6)CC5)C4)ccc3C2=O)C(=O)N1` (stereo partly drawn) [TR-302, 3-(5-(1-(1-(6-(6-((R)-2-(3-fluorophenyl)pyrrolidin-1-yl)imidazo[1,2-b]pyridazin-3-yl)pyridin-2-yl)piperidin-4-yl)azetidin-3-yl)-1-oxoisoindolin-2-yl)piperidine-2,6-dione], the percent degradation of TPM3-TRKA protein at 0.01 µM on TPM3-TRKA fusion protein (KM12, 16 h) was > 80%. In the test on KM12 cells (setting [2]), the IC50 came to 1.7 nM.

For the molecule `Cn1c(=O)n(C2CCC(=O)NC2=O)c2cccc(C#CCN3CCN(c4ccc(C(=O)Nc5n[nH]c6ccc(Cc7cc(F)cc(F)c7)cc56)c(NC5CCOCC5)c4)CC3)c21` (stereo not shown) [TR-303, N-(5-(3,5˜Difluorobenzyl)-1H-indazol-3-yl)-4-(4-(3-(1-(2,6-dioxopiperidin-3-yl)-3-methyl-2-oxo-2,3˜dihydro-1/7-benzo[d]imidazol-4-yl)prop-2-yn-1-yl)piperazin-1-yl)-2-((tetrahydro-2/-pyran-4-yl)amino)benzamide], at TPM3-TRKA fusion protein (setting [1]), the percent degradation of TPM3-TRKA protein at 0.01 µM is > 80%. Also, the IC50 with KM12 cells (setting [2]) was 8.4 nM.

Take `Cn1c(=O)n(C2CCC(=O)NC2=O)c2cccc(CCCCN3CCN(c4ccc(C(=O)Nc5n[nH]c6ccc(Cc7cc(F)cc(F)c7)cc56)c(NC5CCOCC5)c4)CC3)c21` (stereo not shown) [TR-304, N-(5-(3,5-difluorobenzyl)-1H-indazol-3-yl)-4-(4-(4-(1-(2,6-dioxopiperidin-3-yl)-3-methyl-2-oxo-2,3-dihydro-1H-benzo[d]imidazol-4-yl)butyl)piperazin-1-yl)-2-((tetrahydro-2H-pyran-4-yl)amino)benzamide]: the percent degradation of TPM3-TRKA protein at 0.01 µM on TPM3-TRKA fusion protein (setting [1]) is > 80%. Further, the IC50 in the test with KM12 cells (setting [2]) was 1.5 nM.

Regarding `Cn1c(=O)n(C2CCC(=O)NC2=O)c2cccc(CCCN3CCN(c4ccc(C(=O)Nc5n[nH]c6ccc(Cc7cc(F)cc(F)c7)cc56)c(NC5CCOCC5)c4)CC3)c21` (stereo not shown) [TR-305, N-(5-(3,5˜Difluorobenzyl)-1H-indazol-3-yl)-4-(4-(3-(1-(2,6-dioxopiperidin-3-yl)-3-methyl-2-oxo-2,3-dihydro-1H-benzo[d]imidazol-4-yl)propyl)piperazin-1-yl)-2-((tetrahydro-2H-pyran-4-yl)amino)benzamide], the percent degradation of TPM3-TRKA protein at 0.01 µM at TPM3-TRKA fusion protein (setting [1]) is > 80%. For the same molecule, the IC50 in the test on KM12 cells (setting [2]) came out at 2.5 nM.

Regarding `Cn1c(=O)n(C2CCC(=O)NC2=O)c2cccc(C#CCCN3CCN(c4ccc(C(=O)Nc5n[nH]c6ccc(Cc7cc(F)cc(F)c7)cc56)c(NC5CCOCC5)c4)CC3)c21` (stereo not shown) [TR-306, N-(5-(3,5-difluorobenzyl)-1H-indazol-3-yl)-4-(4-(4-(1-(2,6-dioxopiperidin-3-yl)-3-methyl-2-oxo-2,3-dihydro-1H-benzo[d]imidazol-4-yl)but-3-yn-1-yl)piperazin-1-yl)-2-((tetrahydro-2H-pyran-4-yl)amino)benzamide], at TPM3-TRKA fusion protein (setting [1]), the percent degradation of TPM3-TRKA protein at 0.01 µM is > 80%. In addition, the IC50 in the test on KM12 cells (setting [2]) is 4 nM.

In the case of `O=C1CCC(N2C(=O)c3ccc(C4CN(C5CCN(c6cccc(-c7cnc8ccc(N9CCC[C@@H]9c9cccc(F)c9)nn78)n6)CC5)C4)cc3C2=O)C(=O)N1` (stereo partly drawn) [TR-308, 2-(2,6-dioxopiperidin-3-yl)-5-(1-(1-(6-(6-((R)-2-(3-fluorophenyl)pyrrolidin-1-yl)imidazo[1,2-b]pyridazin-3-yl)pyridin-2-yl)piperidin-4-yl)azetidin-3-yl)isoindoline-1,3-dione], at TPM3-TRKA fusion protein (KM12, 16 h), the percent degradation of TPM3-TRKA protein at 0.01 µM was > 80%. Also, in the test with KM12 cells (setting [2]), the IC50 came out at 11.8 nM.

Take `O=C1CCC(N2Cc3ccc(C4CN(C5CCN(c6cccc(-c7cnc8ccc(N9CCC[C@@H]9c9cccc(F)c9)nn78)n6)CC5)C4)cc3C2=O)C(=O)N1` (stereo partly drawn) [TR-309, 3-(6-(1-(1-(6-(6-((R)-2-(3-fluorophenyl)pyrrolidin-1-yl)imidazo[1,2-b]pyridazin-3-yl)pyridin-2-yl)piperidin-4-yl)azetidin-3-yl)-1-oxoisoindolin-2-yl)piperidine-2,6-dione]: the percent degradation of TPM3-TRKA protein at 0.01 µM at TPM3-TRKA fusion protein (KM12, 16 h) lay in the range of 50 to 80%. In the test on KM12 cells (setting [2]), the IC50 worked out at 4.3 nM.

Regarding `Cn1c(=O)n(C2CCC(=O)NC2=O)c2ccc(OCCN3CCN(c4ccc(C(=O)Nc5n[nH]c6ccc(Cc7cc(F)cc(F)c7)cc56)c(NC5CCOCC5)c4)CC3)cc21` (stereo not shown) [TR-314, N-(5-(3,5˜Difluorobenzyl)-1H-indazol-3-yl)-4-(4-(2-((1-(2,6-dioxopiperidin-3˜yl)-3-methyl-2-oxo-2,3-dihydro-1H-benzo[d]imidazol-5-yl)oxy)ethyl)piperazin-1-yl)-2-((tetrahydro-2H-pyran-4-yl)amino)benzamide], the percent degradation of TPM3-TRKA protein at 0.01 µM at TPM3-TRKA fusion protein (KM12, 16 h) fell in the range of 50 to 80%. Besides, 213 nM corresponded to half-maximal inhibition in the test on KM12 cells (KM12, 72 h) (IC50).

In the case of `Cn1c(=O)n(C2CCC(=O)NC2=O)c2cccc(NCCCN3CCN(c4ccc(C(=O)Nc5n[nH]c6ccc(Cc7cc(F)cc(F)c7)cc56)c(NC5CCOCC5)c4)CC3)c21` (stereo not drawn) [TR-315, N—(S-(3,5-difluorobenzyl)-1H-indazol-3-yl)-4-(4-(3-((1-(2,6-dioxopiperidin-3-yl)-3-methyl-2-oxo-2,3-dihydro-1H-benzo[d]imidazol-4-yl)amino)propyl)piperazin-1-yl)-2-((tetrahydro-2H-pyran-4-yl)amino)benzamide], on TPM3-TRKA fusion protein (setting [1]), the percent degradation of TPM3-TRKA protein at 0.01 µM is > 80%. In addition, the IC50 in the test on KM12 cells (setting [2]) was 4.5 nM.

Regarding `Cn1c(=O)n(C2CCC(=O)NC2=O)c2ccc(NCCCN3CCN(c4ccc(C(=O)Nc5n[nH]c6ccc(Cc7cc(F)cc(F)c7)cc56)c(NC5CCOCC5)c4)CC3)cc21` (stereo not shown) [TR-316, N-(5-(3,5-difluorobenzyl)-1H-indazol-3-yl)-4-(4-(3-((1-(2,6-dioxopiperidin-3-yl)-3-methyl-2-oxo-2,3-dihydro-1H-benzo[d]imidazol-5-yl)amino)propyl)piperazin-1-yl)-2-((tetrahydro-2H-pyran-4-yl)amino)benzamide], the percent degradation of TPM3-TRKA protein at 0.01 µM at TPM3-TRKA fusion protein (setting [1]) was > 80%. Moreover, in the test with KM12 cells (setting [2]), the IC50 was found to be 2.3 nM.

Take `O=C1CCC(N2Cc3ccc(N4CC(CN5CCN(c6cccc(-c7cnc8ccc(N9CCC[C@@H]9c9cccc(F)c9)nn78)n6)CC5)C4)cc3C2=O)C(=O)N1` (stereo partly drawn) [TR-317, 3-(6-(3-((4-(6-(6-((R)-2-(3-fluorophenyl)pyrrolidin-1-yl)imidazo[1,2-b]pyridazin-3-yl)pyridin-2-yl)piperazin-1-yl)methyl)azetidin-1-yl)-1-oxoisoindolin-2-yl)piperidine-2,6-dione]: the percent degradation of TPM3-TRKA protein at 0.01 µM on TPM3-TRKA fusion protein (setting [1]) is > 80%. In addition, the IC50 with KM12 cells (setting [2]) turned out to be 5 nM.

As to `O=C1CCC(N2Cc3ccc(N4CC(CN5CCN(c6ccc(C(=O)Nc7n[nH]c8ccc(Cc9cc(F)cc(F)c9)cc78)c(NC7CCOCC7)c6)CC5)C4)cc3C2=O)C(=O)N1` (stereo not shown) [TR-318, N-(5-(3,5-difluorobenzyl)-1H-indazol-3-yl)-4-(4-((1-(2-(2,6-dioxopiperidin-3-yl)-3-oxoisoindolin-5-yl)azetidin-3-yl)methyl)piperazin-1-yl)-2-((tetrahydro-2H-pyran-4-yl)amino)benzamide], the percent degradation of TPM3-TRKA protein at 0.01 µM at TPM3-TRKA fusion protein (setting [1]) was > 80%. Also, the concentration for half-maximal inhibition (IC50) with KM12 cells (setting [2]) turned out to be 2.4 nM.
